Test results: patent US20070155012A1, “Method for production of neurons from cells of a cell line” (priority 2003, published 2007)

Tested on: NT2 cells
Experiment: Response of NT2 cells to growth factors: count of viable spherical cells after three days of culture
Format: cell-based, human
Settings: growth factor present exclusively in growth medium NS; viable cells counted after three days of culture into spheres; FIG. 3
Protocol: This step permits to obtain the first passing over into spheres of NT2 cells that are then cultured, preferably at 100000 cells/ml in 75 ml flasks of the FALCON™ (trademark registered by the Falcon company) type having filtering plugs containing 15 ml of growth medium (NS) not containing bovine serum, defined by the following composition: DMEM/F12 (50%/50%), 2 mM glutamine, N2 complement, 0.6% glucose, 20 μg/ml insulin, to which are added extemporaneously growth factors EGF at 20 ng/ml, bFGF at 10 ng/ml, 2 μg/ml heparin or growth factor LIF at 10 ng/ml or 20 n/ml.
The way NT2 cells respond to growth factors […] and bFGF was studied by counting viable spherical cells obtained after three days of culture in the presence either of the one or the other, either of the one and the other of them then dissociated.
Results represented in FIG. 3 show the number of viable cells after three days, whereas the horizontal line indicates culture density.
Although it was found, unexpectedly, that NT2 cells were capable of forming spheres in the absence of growth factors, they proliferate differently under the action of the latter, and according to the type of growth factors added to the growth medium NS.

Substance	rate of proliferation of NT2 cells multiplied by (with respect to cultures without growth factor)
EGF: epidermal growth factor, added to growth medium at 20 ng/ml	1.5
bFGF: basic fibroblast growth factor, added to growth medium at 10 ng/ml	2.2
